# Experimental data as given in patent publication US20220016111A1, “Methods of Treating Inflammation” (The Walter and Eliza Hall Institute of Medical Research, priority 2018, published 2022).
# “Also recorded” adds a separate entry of the source.
# Key:
# [1] = test system: diffused large B-cell lymphomas cells carrying the Y641 mutations; settings: cited from earlier work
# [2] = test system: H3K27 methylation; settings: cited from earlier work
# [3] = test system: MLL-rearranged leukemia; settings: in-vitro and in vivo; cited from earlier work
# [4] = target: T1, EZH1 (Homo sapiens, UniProt Q92800); settings: cited from earlier work
# T1 sequence (Q92800 whole entry, species assumed): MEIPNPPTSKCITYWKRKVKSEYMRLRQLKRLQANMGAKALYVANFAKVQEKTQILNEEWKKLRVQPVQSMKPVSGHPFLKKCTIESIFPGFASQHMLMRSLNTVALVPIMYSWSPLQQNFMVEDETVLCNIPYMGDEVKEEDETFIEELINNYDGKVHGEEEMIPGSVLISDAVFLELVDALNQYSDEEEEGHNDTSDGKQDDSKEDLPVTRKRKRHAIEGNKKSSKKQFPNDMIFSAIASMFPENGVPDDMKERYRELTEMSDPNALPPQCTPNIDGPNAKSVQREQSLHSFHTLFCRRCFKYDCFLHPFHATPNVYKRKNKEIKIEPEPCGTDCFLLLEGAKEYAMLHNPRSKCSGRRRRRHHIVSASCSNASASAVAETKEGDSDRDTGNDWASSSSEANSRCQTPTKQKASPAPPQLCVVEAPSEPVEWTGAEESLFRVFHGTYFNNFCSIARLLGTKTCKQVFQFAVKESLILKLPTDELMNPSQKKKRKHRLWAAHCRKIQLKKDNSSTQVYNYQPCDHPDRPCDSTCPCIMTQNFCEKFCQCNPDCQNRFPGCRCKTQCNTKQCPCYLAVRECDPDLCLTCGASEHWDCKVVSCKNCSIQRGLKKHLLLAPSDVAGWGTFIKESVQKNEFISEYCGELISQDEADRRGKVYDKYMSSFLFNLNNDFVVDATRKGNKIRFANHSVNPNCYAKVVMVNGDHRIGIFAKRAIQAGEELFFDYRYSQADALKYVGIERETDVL
# T1 sequence (O75530 whole entry partner, species assumed): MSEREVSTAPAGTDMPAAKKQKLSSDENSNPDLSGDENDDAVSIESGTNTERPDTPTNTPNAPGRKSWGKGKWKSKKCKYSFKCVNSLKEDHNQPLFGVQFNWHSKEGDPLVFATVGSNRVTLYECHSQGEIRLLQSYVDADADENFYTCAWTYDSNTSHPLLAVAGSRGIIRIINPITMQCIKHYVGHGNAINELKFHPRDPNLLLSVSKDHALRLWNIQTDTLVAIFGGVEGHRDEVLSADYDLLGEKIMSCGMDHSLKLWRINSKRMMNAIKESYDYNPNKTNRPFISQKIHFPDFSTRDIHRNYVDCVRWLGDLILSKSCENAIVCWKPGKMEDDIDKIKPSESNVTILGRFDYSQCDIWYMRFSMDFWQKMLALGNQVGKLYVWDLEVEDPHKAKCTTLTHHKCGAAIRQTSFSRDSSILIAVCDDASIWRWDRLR
# T1 sequence (Q15022 whole entry partner, species assumed): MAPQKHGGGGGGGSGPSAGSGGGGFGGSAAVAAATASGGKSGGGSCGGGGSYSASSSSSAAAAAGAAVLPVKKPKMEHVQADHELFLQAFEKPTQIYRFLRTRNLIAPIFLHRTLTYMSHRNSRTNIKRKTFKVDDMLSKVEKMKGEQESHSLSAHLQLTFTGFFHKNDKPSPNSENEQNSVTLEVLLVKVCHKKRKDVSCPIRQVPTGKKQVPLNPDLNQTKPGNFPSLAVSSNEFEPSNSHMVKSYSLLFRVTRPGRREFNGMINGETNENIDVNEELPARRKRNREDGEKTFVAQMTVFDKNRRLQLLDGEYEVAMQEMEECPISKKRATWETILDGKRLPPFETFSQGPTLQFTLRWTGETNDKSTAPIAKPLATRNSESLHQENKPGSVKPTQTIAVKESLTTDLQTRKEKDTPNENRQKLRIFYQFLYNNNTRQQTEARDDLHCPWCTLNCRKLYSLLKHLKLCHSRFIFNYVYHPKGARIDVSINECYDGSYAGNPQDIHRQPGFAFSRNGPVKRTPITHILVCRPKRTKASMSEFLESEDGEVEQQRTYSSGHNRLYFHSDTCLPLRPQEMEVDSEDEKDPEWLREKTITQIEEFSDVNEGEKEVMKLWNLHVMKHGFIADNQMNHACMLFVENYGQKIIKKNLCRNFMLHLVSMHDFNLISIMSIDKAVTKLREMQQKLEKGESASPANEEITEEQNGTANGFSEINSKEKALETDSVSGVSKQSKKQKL
# T1 sequence (Q09028 whole entry partner, species assumed): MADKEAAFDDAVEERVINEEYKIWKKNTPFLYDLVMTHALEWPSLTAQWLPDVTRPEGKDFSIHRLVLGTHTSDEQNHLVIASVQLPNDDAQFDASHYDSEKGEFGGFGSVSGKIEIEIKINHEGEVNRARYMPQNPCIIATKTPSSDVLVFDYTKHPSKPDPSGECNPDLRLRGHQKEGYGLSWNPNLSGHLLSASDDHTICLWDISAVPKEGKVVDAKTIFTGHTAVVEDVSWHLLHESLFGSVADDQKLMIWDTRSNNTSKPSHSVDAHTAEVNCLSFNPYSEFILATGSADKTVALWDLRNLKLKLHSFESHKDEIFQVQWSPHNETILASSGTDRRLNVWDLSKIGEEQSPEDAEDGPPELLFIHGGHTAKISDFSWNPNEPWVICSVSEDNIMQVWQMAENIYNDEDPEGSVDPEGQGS
# [5] = test system: established allergic inflammation; experiment: Established OVA inflammation, three doses of GSK126; type: in vivo, C57BL/6 mice
# Protocol: Data shown representative of n=5 OVA/Vehicle (Veh) and OVA/GSK groups, n=2 unchallenged controls (Con) shown for reference purposes. c) Quantification of b. Mean and SEM shown. Group sizes as in b. […] Scale bar represents 100 μm. f) Quantification of PAS^+ cells and Inflammation Score. Mean and SEM shown. Group sizes as in b. Statistical analysis by 1-way ANOVA with Holm-Sidak post-hoc.
# (§1) Mice were immunized with an intraperitoneal injection of 200 μL Alum/OVA containing 20 μg low-endotoxin ovalbumin (Worthington) and 2.25 mg aluminium hydroxide (Sigma) in sterile PBS on day 0 and day 7. Mice were then rested for a minimum of 2 weeks and then challenged daily for 4 days with nebulized 2% (w/v) ovalbumin (Sigma) in PBS for 15 min. The day after the final challenge (or at a time-point described in the text), mice were sacrificed and bronchoalveolar lavage (250 μL×2 with sterile PBS) was performed from which cellular infiltrate was analysed by flow cytometry and acellular BAL fluid was analysed by Bio-Plex Pro™ cytokine assay (Biorad). Lung tissue was then fixed by inserting 1 mL of 10% formalin via the trachea into the lungs leaving to set in situ for at least 30 min. The mid-section of the left lobe was then excised and placed in liquid formalin for a further 24 h prior to paraffin embedding, sectioning and staining with Periodic acid-Schiff (PAS) and Haematoxylin and Eosin (H&E) stains. Stained slides were imaged using an Aperio Digital Pathology Slide Scanner and quantitated by counting PAS positive epithelial cells and scoring leukocyte infiltration in H&E stained sections according to the scoring chart (FIG. 16). Scores from at least five 20× magnification fields of each stain were averaged for each mouse.
# The therapeutic regime was then extended to three doses (day 5, 8 and 10) after establishing inflammation by OVA challenge on days 1-4, and airway inflammation assessed on day 11 (FIG. 15a).
# [6] = test system: tumours; settings: mouse models; cited from earlier work
# [7] = test system: established allergic inflammation; experiment: Established OVA inflammation, single dose of GSK126; type: in vivo, C57BL/6 mice; settings: single dose 150 mg/kg oral gavage on day 5, assessed 3 days later
# Protocol: CD4+ and CD8+ T cells were first gated by CD11b−GR1−TCRβ+. Neutrophils were gated by CD11bHiGR1Hi. Eosinophils were gated by CD11b+CD11c−SiglecF+. Mean and SEM are shown. n=2 Alum-sensitized vehicle treated controls shown for comparative purposes. OVA-sensitized groups were statistically compared by Student's t test.
# as §1, with “The mid-section of the left lobe was then excised and placed in liquid formalin for a further 24 h prior to paraffin embedding, sectioning and staining with Periodic acid-Schiff (PAS) and Haematoxylin and Eosin (H&E) stains.” left out, “Scores from at least five 20× magnification fields of each stain were averaged for each mouse.” left out
# [8] = test system: OVA-induced allergic inflammation; type: in vivo, C57BL/6 mice
# Protocol: (§2) Mean and SEM is shown. […] Scale bar represents 100 μm. e) Quantification of histological analysis showing the frequency of PAS^+ cells and the Inflammation Score. Mean and SEM are shown for n=8 per group. […] Mean and SEM are shown for n=5 (Vehicle), n=4 (each GSK dose).
# Mean and SEM as well as individual data points are shown. n=4 each group. Data was statistically tested by 1-way ANOVA with Dunnet's post-hoc test.
# as §1
# Lung function was assessed by the forced oscillation technique using a FlexiVent system with FX1 module (Scireq, Montreal, Canada). Mice were anaesthetized with ketamine (150 mg/kg) and xylazine (15 mg/kg) then cannulated by tracheostomy with ligation. Baseline respiratory mechanics were recorded, followed by aerosolized saline then increasing doses of methacholine (MCh) (0.1-30 mg/mL). Respiratory impedance (Zrs) was measured and partitioned into airway and parenchymal components through fitting to the Constant Phase Model from which Newtonian resistance (Rn; equivalent to airway resistance) was calculated.
# Total IgE and OVA-specific IgE were measured by enzyme-linked immunosorbent assay (ELISA). Briefly, 96 well plates were coated with either Rat anti-mouse IgE (to measure total IgE; Southern Biotech clone #23G2, cat #1130-01) or OVA protein (for OVA-specific IgE) in PBS overnight. Samples were diluted (total IgE 1:50-1:200 and OVA-specific IgE 1:50-1:100 based on pilot assays), and incubated in duplicate, prior to incubation with GAM Fc-specific polyclonal anti-IgE-HRP and colorimetric detection using TMB substrate (Thermo Scientific #34028), measuring absorbance at 450 nm. Absorbance values were converted to total IgE levels by reference to a mouse IgE anti-DNP (clone SPE-7) standard curve (0.1 ng/mL-1 μg/mL) which was included on the same plate. OVA-specific IgE absorbance was expressed relative to a reference OVA-immunized WT mouse which was selected prior to measurement. All ELISAs were performed blinded to treatment and genotype.
# [9] = test system: activated C57BL/6 mouse CD4+ T cells; experiment: Survival/expansion of activated CD4+ T cells in vitro; type: cell-based; settings: anti-CD3 and anti-CD28 activation, three days
# Excerpt: as §2
# Nave CD4^+ T cells were isolated from a single-cell suspension from mouse spleen by MACS isolation kit (Miltenyi Biotech). Cells were labelled with CellTrace™ Violet (CTV, Thermo Fisher) then activated in 96 well plates pre-coated with anti-CD3 (10 μg/mL) and anti-CD28 (5 μg/mL) in RPMI-1640 medium supplemented with 10% heat-inactivated fetal bovine serum, 2 mM GlutaMAX™ and 0.05 mM β-mercaptoethanol.
# [10] = test system: 20 other methyltransferases; settings: cited from earlier work
# [11] = in vivo, cited from earlier work
# [12] = test system: wild type and mutant forms of EZH2; settings: cited from earlier work
# [13] = target: T1, EZH1; settings: cited from earlier work; remark: listed apart in the source
# [14] = test system: 30 other histone or DNA methyltransferases; settings: cited from earlier work
# [15] = in-vivo; cited from earlier work
# [16] = 150 mg/kg on day 5, 8 and 10, assessed day 11
# [17] = 75 mg/kg, compared with vehicle
# [18] = 150 mg/kg oral gavage, each day of OVA challenge
# [19] = after OVA challenge and GSK126 administration
smiles,measurement,setting,value
CCC(CC)n1ccc2c(C(=O)NCc3c(C)cc(C)[nH]c3=O)cc(C#N)cc21 [EI1],effect on lymphoma cells,[1],"decreased proliferation, cell cycle arrest, and apoptosis"
same,H3K27 methylation and PRC2 target genes in treated cells,[2],genome-wide loss of H3K27 methylation and activation of PRC2 target genes
CCCc1cc(C)[nH]c(=O)c1CNC(=O)c1cc(-c2ccc(N3CCN(C(C)C)CC3)nc2)cc2c1cnn2C(C)C [UNC 1999],growth of MLL-rearranged leukemia,[3],inhibit growth
CC[C@H](C)n1cc(C)c2c(C(=O)NCc3c(C)cc(C)[nH]c3=O)cc(-c3ccc(N4CCNCC4)nc3)cc21 [GSK126],increased potency compared to EZH1,[4],150 fold
same,BAL B cells,[5]; [16],significantly reduced
same,BAL CD4+ T cells,[5]; [16],significantly reduced
same,BAL eosinophils,[5]; [16],significantly reduced
same,PAS+ mucous-producing cells,[5]; [16],reduced
same,airway inflammation,[5]; [16],reduced
same,total BAL cells,[5]; [16],significantly reduced
same,lung inflammation levels (all groups),[5]; 7 days after final OVA challenge,statistically indistinguishable
same,growth of tumours,[6],suppress the growth of tumours
same,BAL granulocyte numbers,[7],did not alter
same,BAL CD4+ T cell numbers,[7]; 150 mg/kg,reduced; also recorded: selectively reduces
same,BAL cells,[8]; [17],no effect
same,PAS staining,[8]; [17],no effect
same,lung tissue inflammation,[8]; [17],no effect
same,PAS+ mucous-producing epithelial cells,[8]; 150 mg/kg,similarly reduced
same,levels of inflammation in the lung tissue,[8]; 150 mg/kg,similarly reduced
same,BAL T cells,[8]; [18],dramatic reduction
same,BAL eosinophils,[8]; [18],dramatic reduction
same,BAL neutrophils,[8]; [18],dramatic reduction
same,total BAL leukocytes,[8]; [18],dramatic reduction
same,OVA-induced airway hyperresponsiveness,"[8]; 150 mg/kg, methacholine",complete protection
same,OVA-specific IgE in serum,[8]; [19],unchanged
same,total IgE in serum,[8]; [19],unchanged
same,systemic effects,"[8]; mouse, in vivo",did not observe any systemic effects
same,number of cells recovered in the culture compared to vehicle control,[9],dose-dependent effect
same,increased potency compared to 20 other methyltransferases,[10],> 1000 fold
Cc1cc(C)c(CNC(=O)c2cc(-c3ccc(CN4CCOCC4)cc3)cc3c2cnn3C2CCCC2)c(=O)[nH]1 [EPZ 005687],pharmacokinetic properties,[11],suboptimal
same,affinity and selectivity for EZH2,[12],high affinity and selectivity
COc1cc(C)[nH]c(=O)c1CNC(=O)c1c(C)n([C@H](C)C2CCN(CC(F)(F)F)CC2)c2ccccc12 [CPI-1205],oral bioavailability,[11],orally bioavailable
same,selectivity for EZH2 over EZH1,[13],modest selectivity
same,selectivity against 30 other histone or DNA methyltransferases,[14],selectivity
CCS(=O)(=O)N1CCC([C@@H](C)n2c(C)c(C(=O)NCc3c(OC)cc(C)[nH]c3=O)c3ccccc32)CC1 [CPI-169],antitumor activity and PD target engagement,[15],demonstrated antitumor activity and PD target engagement
same,oral bioavailability,[11],limited oral bioavailability
CCN(c1cc(-c2ccc(CN3CCOCC3)cc2)cc(C(=O)NCc2c(C)cc(C)[nH]c2=O)c1C)C1CCOCC1 [Tazemetostat],oral bioavailability,[11],orally bioavailable
